Experimental findings from patent publication US20260200946A1, “KRAS(G12V) INHIBITORS” (Ranok Therapeutics (Hangzhou) Co. Ltd., priority 2022, published 2026) are described below.

Each structure is given as a SMILES string.

T1 sequence (P01116 1-188 isoform P01116-2 G12V): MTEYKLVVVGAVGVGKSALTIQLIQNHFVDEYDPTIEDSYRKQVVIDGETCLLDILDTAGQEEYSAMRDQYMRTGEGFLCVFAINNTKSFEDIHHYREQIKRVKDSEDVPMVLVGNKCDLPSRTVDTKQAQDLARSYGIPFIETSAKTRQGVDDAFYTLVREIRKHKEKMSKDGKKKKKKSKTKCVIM

The first assay concerns NCIH727 cells. The assay can be described thus: Cancer cell line proliferation (CellTiter-Glo), NCI-H727. The format is cell-based. To be noted: Homo sapiens, 72 h, NCIH727 lung carcinoid, heterozygous G12V. Put shortly: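 NCI-H727 cells (1,000/well) were grown 72 h at 37 °C/5% CO2, then exposed to compound at various concentrations (0.5% DMSO final) for a further 72 h. Viability was read by CellTiter-Glo luminescence, and IC50 values were calculated from the dose-response.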
For the compound `C#Cc1c(F)ccc2cc(O)cc(-c3nc(OC)c4c(N5CC6CCC(C5)N6C(=O)NC#N)nc(OCC5(CN6CCC(F)CC6)CC5)nc4c3F)c12` [Example 23], the EC50 (usually the concentration at which the effect is half-maximal) is above 1000 nM.
`C#Cc1c(F)ccc2cc(O)cc(-c3ncc4c(N5CC6CCC(C5)N6C(=O)N5CC(OC)C5)nc(OCC5(CN6CCC(F)CC6)CC5)nc4c3F)c12` [Example 24]: the concentration giving a half-maximal response (EC50) is above 1000 nM.
Same read-out and setting: the figure for `C#Cc1c(F)ccc2cc(O)cc(-c3ncc4c(N5CC6CCC(C5)N6S(=O)(=O)NC(C)C)nc(OCC5(CN6CCC(F)CC6)CC5)nc4c3F)c12` [Example 25] is above 1000 nM.
Compound `C#Cc1c(F)ccc2cc(O)cc(-c3nc(OC)c4c(N5CC6CCC(C5)N6C(=O)NCC(F)(F)F)nc(OCC5(CN6CCC(F)CC6)CC5)nc4c3F)c12` [Example 26] showed an EC50 of 100 to 1000 nM.
For the compound `C#CCCC(=O)N1C2CCC1CN(c1nc(OCC3(CN4CCC(F)CC4)CC3)nc3c(F)c(-c4cc(O)cc5ccc(F)c(C#C)c45)nc(OC)c13)C2` [Example 61], the EC50 lay within 100 to 1000 nM.
Still for that read-out and setting: the figure for `C#Cc1c(F)ccc2cc(O)cc(-c3nc(OC)c4c(N5CC6CCC(C5)N6C(=O)NCCF)nc(OCC5(CN6CCC(F)CC6)CC5)nc4c3F)c12` [Example 62] is 100 to 1000 nM; for `C#Cc1c(F)ccc2cc(O)cc(-c3nc(OC)c4c(N5CC6CCC(C5)N6C(=O)NC(C)(C#N)CC)nc(OCC5(CN6CCC(F)CC6)CC5)nc4c3F)c12` (centres unmarked) [Example 64] it is below 100 nM.
On the same count and under the same terms, the figure for `C#Cc1c(F)ccc2cc(O)cc(-c3nc(OC)c4c(N5CC6CCC(C5)N6C(=O)NC(C)(C)C#N)nc(OCC5(CN6CCC(F)CC6)CC5)nc4c3F)c12` [Example 65] is below 100 nM; for `C#Cc1c(F)ccc2cc(O)cc(-c3nc(OC)c4c(N5CC6CCC(C5)N6C(=O)CCC#N)nc(OCC5(CN6CC7CC7C6)CC5)nc4c3F)c12` (centres unmarked) [Example 99] it is below 100 nM; for `C#Cc1c(F)ccc2cc(O)cc(-c3nc(OC)c4c(N5CC6CCC(C5)N6C(=O)NCC#N)nc(OCC5(CN6CC7CC7C6)CC5)nc4c3F)c12` (centres unmarked) [Example 104] it is 100 to 1000 nM.
The same measure, in the same setting: the figure for `C#Cc1c(F)ccc2cc(O)cc(-c3nc(OC)c4c(N5CC6CCC(C5)N6C(=O)NC(C)C#N)nc(OCC5(CN6CC7CC7C6)CC5)nc4c3F)c12` (centres unmarked) [Example 105] is below 100 nM; for `C#Cc1c(F)ccc2cc(O)cc(-c3nc(OC)c4c(N5CC6CCC(C5)N6C(=O)C(C#N)CC#N)nc(OCC5(CN6CC7CC7C6)CC5)nc4c3F)c12` (centres unmarked) [Example 109] it is 100 to 1000 nM; for `[2H]C([2H])([2H])Oc1nc(-c2cc(O)cc3ccc(F)c(C#C)c23)c(F)c2nc(OCC3(CN4CC5CC5C4)CC3)nc(N3CC4CCC(C3)N4C(=O)C(C)C#N)c12` (centres unmarked) [Example 118] it is 100 to 1000 nM.
For `[2H]C([2H])([2H])Oc1nc(-c2cc(O)cc3ccc(F)c(C#C)c23)c(F)c2nc(OCC3(CN4CC5CC5C4)CC3)nc(N3CC4CCC(C3)N4C(=O)C(C)(C)C#N)c12` (centres unmarked) [Example 119], the 50% effective concentration (EC50) is above 1000 nM.
On the same count and under the same terms, in the case of `C#Cc1c(F)ccc2cc(O)cc(-c3nc(OC)c4c(N5CC6CCC(C5)N6C(=O)NCC(F)(F)F)nc(OCC5(CN6CC7CC7C6)CC5)nc4c3F)c12` (centres unmarked) [Example 129] it was below 100 nM; in that of `C#Cc1c(F)ccc2cc(O)cc(-c3nc(OC)c4c(N5CC6CCC(C5)N6C(=O)CC(C)C#N)nc(OCC5(CN6CC7CC7C6)CC5)nc4c3F)c12` (centres unmarked) [Example 140], below 100 nM.
The compound `C#Cc1c(F)ccc2cc(O)cc(-c3nc(OC)c4c(N5CC6CCC(C5)N6C(=O)CCOC(F)(F)F)nc(OCC5(CN6CC7CC7C6)CC5)nc4c3F)c12` (centres unmarked) [Example 147] returned a concentration giving a half-maximal response (EC50) of 100 to 1000 nM.

A further assay addresses T1, KRAS(G12V)/SOS1 (Homo sapiens, UniProt P01116, G12V).
T1 construct: purchased Cisbio 63ADK000CB18PEH
In words: KRAS(G12V)/SOS1 homogeneous time-resolved fluorescence (HTRF) assay. The format is binding. To be noted: absence of GTP; 4° C., 3 hours; read-out: HTRF of KRASG12V-SOS1. How it is done:
Binding of test compounds to KRAS(G12V) target protein, which in turn blocks KRAS(G12V) interaction with the SOS1 protein, was measured in the absences of GTP by homogeneous time-resolved fluorescence using the KRAS-G12V/SOS1 Binding Assay Kit (Cisbio, 63ADK000CB18PEH), following the manufacturer's instructions, except as noted. 3-fold serial dilutions of each test compound were prepared ranging from 20 µM to 1.02 nM. The test compound was mixed and incubated with reaction components, incubated in a sealed plate at 4° C. for 3 hours and fluorescence was measured using a PerkinElmer Envision plate reader. The KRAS(G12V)-SOS1 IC50 values (the concentration of 50% of the maximal inhibition) were calculated using GraphPad Prism 8.0 software.
On the technique in general: TR-FRET usually uses a lanthanide donor and a delayed reading to cut background.
`C#Cc1c(F)ccc2cc(O)cc(-c3nc(OC)c4c(N5CC6CCC(C5)N6C(=O)NC#N)nc(OCC5(CN6CCC(F)CC6)CC5)nc4c3F)c12` [Example 23]: the IC50 is 100 to 1000 nM.
For `C#Cc1c(F)ccc2cc(O)cc(-c3ncc4c(N5CC6CCC(C5)N6C(=O)N5CC(OC)C5)nc(OCC5(CN6CCC(F)CC6)CC5)nc4c3F)c12` [Example 24], the IC50 lay within 100 to 1000 nM.
The same measure, in the same setting: in the case of `C#Cc1c(F)ccc2cc(O)cc(-c3ncc4c(N5CC6CCC(C5)N6S(=O)(=O)NC(C)C)nc(OCC5(CN6CCC(F)CC6)CC5)nc4c3F)c12` [Example 25] it was 100 to 1000 nM; in that of `C#Cc1c(F)ccc2cc(O)cc(-c3nc(OC)c4c(N5CC6CCC(C5)N6C(=O)NCC(F)(F)F)nc(OCC5(CN6CCC(F)CC6)CC5)nc4c3F)c12` [Example 26], below 100 nM; in that of `C#CCCC(=O)N1C2CCC1CN(c1nc(OCC3(CN4CCC(F)CC4)CC3)nc3c(F)c(-c4cc(O)cc5ccc(F)c(C#C)c45)nc(OC)c13)C2` [Example 61], below 100 nM.
Still for that read-out and setting: the figure for `C#Cc1c(F)ccc2cc(O)cc(-c3nc(OC)c4c(N5CC6CCC(C5)N6C(=O)NCCF)nc(OCC5(CN6CCC(F)CC6)CC5)nc4c3F)c12` [Example 62] is below 100 nM; for `C#Cc1c(F)ccc2cc(O)cc(-c3nc(OC)c4c(N5CC6CCC(C5)N6C(=O)NC(C)(C#N)CC)nc(OCC5(CN6CCC(F)CC6)CC5)nc4c3F)c12` (centres unmarked) [Example 64] it is below 100 nM.
Still for that read-out and setting: in the case of `C#Cc1c(F)ccc2cc(O)cc(-c3nc(OC)c4c(N5CC6CCC(C5)N6C(=O)NC(C)(C)C#N)nc(OCC5(CN6CCC(F)CC6)CC5)nc4c3F)c12` [Example 65] it was below 100 nM; in that of `[2H]C([2H])([2H])Oc1nc(-c2cc(O)cc3ccc(F)c(C#C)c23)c(F)c2nc(OCC3(CN4CC5CC5C4)CC3)nc(N3CC4CCC(C3)N4C(=O)C(C)C#N)c12` (centres unmarked) [Example 118], below 100 nM.
For the compound `[2H]C([2H])([2H])Oc1nc(-c2cc(O)cc3ccc(F)c(C#C)c23)c(F)c2nc(OCC3(CN4CC5CC5C4)CC3)nc(N3CC4CCC(C3)N4C(=O)C(C)(C)C#N)c12` (centres unmarked) [Example 119], the IC50 was below 100 nM.

The subject of a further assay is SW620 cells. The assay can be described thus: Cancer cell line proliferation (CellTiter-Glo), SW620. The format is cell-based. Particulars: Homo sapiens, SW-620, SW620 colorectal adenocarcinoma, homozygous G12V, 72 hr. How it is done:
Cell lines were cultured essentially according to ATCC recommendations. SW620 and NCIH727 cells were plated in 384-well tissue culture plates at 1,000 cells/well and incubated at 37° C./5% CO2 for 72 hr in 40 μl of media. […] Each cell line was then treated with test compounds at various concentrations with a final concentration of 0.5% DMSO/well, and then incubated at 37° C./5% CO2 for 72 hr. 40 μl of CellTiter-Glo® Reagent (Promega Corporation, Madison, WI) was added to each well and processed according manufacturer's protocol. Results were analyzed and IC50 values were calculated in GraphPad 8.0 software.
In turn, `C#Cc1c(F)ccc2cc(O)cc(-c3nc(OC)c4c(N5CC6CCC(C5)N6C(=O)NC#N)nc(OCC5(CN6CCC(F)CC6)CC5)nc4c3F)c12` [Example 23] returned a half-maximal effective concentration (EC50) above 1000 nM.
Compound `C#Cc1c(F)ccc2cc(O)cc(-c3ncc4c(N5CC6CCC(C5)N6C(=O)N5CC(OC)C5)nc(OCC5(CN6CCC(F)CC6)CC5)nc4c3F)c12` [Example 24] had a concentration giving a half-maximal response (EC50) above 1000 nM.
The same measure, in the same setting: in the case of `C#Cc1c(F)ccc2cc(O)cc(-c3ncc4c(N5CC6CCC(C5)N6S(=O)(=O)NC(C)C)nc(OCC5(CN6CCC(F)CC6)CC5)nc4c3F)c12` [Example 25] it was above 1000 nM; in that of `C#Cc1c(F)ccc2cc(O)cc(-c3nc(OC)c4c(N5CC6CCC(C5)N6C(=O)NCC(F)(F)F)nc(OCC5(CN6CCC(F)CC6)CC5)nc4c3F)c12` [Example 26], above 1000 nM.
The same measure, in the same setting: in the case of `C#Cc1c(F)ccc2cc(O)cc(-c3nc(OC)c4c(N5CC6CCC(C5)N6C(=O)CCC#N)nc(OCC5(CN6CC7CC7C6)CC5)nc4c3F)c12` (centres unmarked) [Example 99] it was 100 to 1000 nM; in that of `C#Cc1c(F)ccc2cc(O)cc(-c3nc(OC)c4c(N5CC6CCC(C5)N6C(=O)NCC#N)nc(OCC5(CN6CC7CC7C6)CC5)nc4c3F)c12` (centres unmarked) [Example 104], 100 to 1000 nM; in that of `C#Cc1c(F)ccc2cc(O)cc(-c3nc(OC)c4c(N5CC6CCC(C5)N6C(=O)NC(C)C#N)nc(OCC5(CN6CC7CC7C6)CC5)nc4c3F)c12` (centres unmarked) [Example 105], 100 to 1000 nM.
Same read-out and setting: the figure for `C#Cc1c(F)ccc2cc(O)cc(-c3nc(OC)c4c(N5CC6CCC(C5)N6C(=O)C(C#N)CC#N)nc(OCC5(CN6CC7CC7C6)CC5)nc4c3F)c12` (centres unmarked) [Example 109] is 100 to 1000 nM; for `C#Cc1c(F)ccc2cc(O)cc(-c3nc(OC)c4c(N5CC6CCC(C5)N6C(=O)NCC(F)(F)F)nc(OCC5(CN6CC7CC7C6)CC5)nc4c3F)c12` (centres unmarked) [Example 129] it is 100 to 1000 nM.
Turning to `C#Cc1c(F)ccc2cc(O)cc(-c3nc(OC)c4c(N5CC6CCC(C5)N6C(=O)CC(C)C#N)nc(OCC5(CN6CC7CC7C6)CC5)nc4c3F)c12` (centres unmarked) [Example 140], the EC50 is 100 to 1000 nM.
The same measure, in the same setting: in the case of `C#Cc1c(F)ccc2cc(O)cc(-c3nc(OC)c4c(N5CC6CCC(C5)N6C(=O)CCOC(F)(F)F)nc(OCC5(CN6CC7CC7C6)CC5)nc4c3F)c12` (centres unmarked) [Example 147] it was 100 to 1000 nM.
